Assay results: patent US20260250257A1, “ANTIBACTERIAL AND SYNERGISTIC ACTIVE COMPOUND AND USE THEREOF” (EAST CHINA UNIVERSITY OF SCIENCE AND TECHNOLOGY, priority 2023, published 2026)

test system: ATCC25922 strain (Escherichia coli); assay: Broth microdilution, antibacterial activity of the compound used alone; type: cell-based; details: not given
From the text: (§1) The broth microdilution method was used to test the antibacterial effects of the compounds of the present invention against various Gram-negative bacterial strains when used alone.

SMILES	Antibacterial activity of the compound of Formula I, ATCC25922 [µg/mL]
CC(C)c1cc(-c2c[se]c(N=C(N)N)n2)cc(C(C)C)c1 [Compound I-18]	256
COc1ccc(Oc2ccccc2-c2csc(N=C(N)N)n2)c(C)c1 [Compound I-83]	256
NC(N)=Nc1nc(-c2cc(I)c(O)c(I)c2)co1 [Compound I-35]	256
Clc1sc(N=C2NCCCN2)nc1-c1ccccc1Oc1ccc(I)cc1I [Compound I-148]	256
NC(N)=Nc1nc(-c2ccc(F)cc2Oc2ccc(Cl)cc2Cl)c(Cl)s1 [Compound I-90]	256
CCc1[nH]c(N=C(N)N)nc1-c1cccc2c(C)cccc12 [Compound I-60]	256
Clc1ccc(Oc2ccccc2-c2c[nH]c(N=C3NCCCN3)n2)c(Cl)c1 [Compound I-146]	256
CS(=O)(=O)c1ccc(Oc2ccccc2Cl)cc1-c1nc(N=C2NCCCN2)sc1Cl [Compound I-155]	128
NC(N)=Nc1nc(-c2cccc(Oc3ccccc3I)c2)cs1 [Compound I-96]	256

test system: ATCC19606 strain (Acinetobacter baumannii); assay: as above; type: cell-based; details: not given
From the text: as §1

SMILES	Antibacterial activity of the compound of Formula I, ATCC19606 [µg/mL]
CC(C)c1cc(-c2c[se]c(N=C(N)N)n2)cc(C(C)C)c1 [Compound I-18]	256
COc1ccc(Oc2ccccc2-c2csc(N=C(N)N)n2)c(C)c1 [Compound I-83]	256
NC(N)=Nc1nc(-c2cc(I)c(O)c(I)c2)co1 [Compound I-35]	256
Clc1sc(N=C2NCCCN2)nc1-c1ccccc1Oc1ccc(I)cc1I [Compound I-148]	256
NC(N)=Nc1nc(-c2ccc(F)cc2Oc2ccc(Cl)cc2Cl)c(Cl)s1 [Compound I-90]	256
CCc1[nH]c(N=C(N)N)nc1-c1cccc2c(C)cccc12 [Compound I-60]	256
Clc1ccc(Oc2ccccc2-c2c[nH]c(N=C3NCCCN3)n2)c(Cl)c1 [Compound I-146]	256
CS(=O)(=O)c1ccc(Oc2ccccc2Cl)cc1-c1nc(N=C2NCCCN2)sc1Cl [Compound I-155]	256
NC(N)=Nc1nc(-c2cccc(Oc3ccccc3I)c2)cs1 [Compound I-96]	256

test system: ATCC13883 strain (Klebsiella pneumoniae); assay: as above; type: cell-based; details: not given
From the text: as §1

SMILES	Antibacterial activity of the compound of Formula I, ATCC13883 [µg/mL]
CC(C)c1cc(-c2c[se]c(N=C(N)N)n2)cc(C(C)C)c1 [Compound I-18]	256
COc1ccc(Oc2ccccc2-c2csc(N=C(N)N)n2)c(C)c1 [Compound I-83]	256
NC(N)=Nc1nc(-c2cc(I)c(O)c(I)c2)co1 [Compound I-35]	256
Clc1sc(N=C2NCCCN2)nc1-c1ccccc1Oc1ccc(I)cc1I [Compound I-148]	256
NC(N)=Nc1nc(-c2ccc(F)cc2Oc2ccc(Cl)cc2Cl)c(Cl)s1 [Compound I-90]	256
CCc1[nH]c(N=C(N)N)nc1-c1cccc2c(C)cccc12 [Compound I-60]	256
Clc1ccc(Oc2ccccc2-c2c[nH]c(N=C3NCCCN3)n2)c(Cl)c1 [Compound I-146]	256
CS(=O)(=O)c1ccc(Oc2ccccc2Cl)cc1-c1nc(N=C2NCCCN2)sc1Cl [Compound I-155]	128
NC(N)=Nc1nc(-c2cccc(Oc3ccccc3I)c2)cs1 [Compound I-96]	256

test system: ATCC9027 strain (Pseudomonas aeruginosa); assay: as above; type: cell-based; details: not given
From the text: as §1

SMILES	Antibacterial activity of the compound of Formula I, ATCC9027 [µg/mL]
CC(C)c1cc(-c2c[se]c(N=C(N)N)n2)cc(C(C)C)c1 [Compound I-18]	256
COc1ccc(Oc2ccccc2-c2csc(N=C(N)N)n2)c(C)c1 [Compound I-83]	256
NC(N)=Nc1nc(-c2cc(I)c(O)c(I)c2)co1 [Compound I-35]	256
Clc1sc(N=C2NCCCN2)nc1-c1ccccc1Oc1ccc(I)cc1I [Compound I-148]	256
NC(N)=Nc1nc(-c2ccc(F)cc2Oc2ccc(Cl)cc2Cl)c(Cl)s1 [Compound I-90]	256
CCc1[nH]c(N=C(N)N)nc1-c1cccc2c(C)cccc12 [Compound I-60]	256
Clc1ccc(Oc2ccccc2-c2c[nH]c(N=C3NCCCN3)n2)c(Cl)c1 [Compound I-146]	256
CS(=O)(=O)c1ccc(Oc2ccccc2Cl)cc1-c1nc(N=C2NCCCN2)sc1Cl [Compound I-155]	64
NC(N)=Nc1nc(-c2cccc(Oc3ccccc3I)c2)cs1 [Compound I-96]	256

test system: ATCC25922 strain (Escherichia coli); assay: Checkerboard antibacterial synergistic activity test with polymyxin E (FIC); type: cell-based; design: key: FIC≤0.5 synergy; 0.5–1 additive; 1–2 indifferent; ≥2 antagonism; details: combined with polymyxin E
In short: (§2)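 Checkerboard in MH broth: colistin dilutions 16→0.015 μg/ml × test drug 256→4 μg/ml (concentrations before adding inoculum); drug mix plus bacteria, 37° C., 16 h. FIC cut-offs: ≤0.5 synergy; 0.5–1 additive; 1–2 indifferent; ≥2 antagonism.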

SMILES	Synergistic activity (FIC value) ATCC25922
CC(C)c1cc(-c2c[se]c(N=C(N)N)n2)cc(C(C)C)c1 [Compound I-18]	0.39
COc1ccc(Oc2ccccc2-c2csc(N=C(N)N)n2)c(C)c1 [Compound I-83]	0.27
NC(N)=Nc1nc(-c2cc(I)c(O)c(I)c2)co1 [Compound I-35]	0.52
Clc1sc(N=C2NCCCN2)nc1-c1ccccc1Oc1ccc(I)cc1I [Compound I-148]	0.14
NC(N)=Nc1nc(-c2ccc(F)cc2Oc2ccc(Cl)cc2Cl)c(Cl)s1 [Compound I-90]	0.15
CCc1[nH]c(N=C(N)N)nc1-c1cccc2c(C)cccc12 [Compound I-60]	0.38
Clc1ccc(Oc2ccccc2-c2c[nH]c(N=C3NCCCN3)n2)c(Cl)c1 [Compound I-146]	0.14
CS(=O)(=O)c1ccc(Oc2ccccc2Cl)cc1-c1nc(N=C2NCCCN2)sc1Cl [Compound I-155]	0.18
NC(N)=Nc1nc(-c2cccc(Oc3ccccc3I)c2)cs1 [Compound I-96]	0.18

test system: ATCC19606 strain (Acinetobacter baumannii); assay: as above; type: cell-based; design: key: FIC≤0.5 synergy; 0.5–1 additive; 1–2 indifferent; ≥2 antagonism; details: combined with polymyxin E
In short: as §2

SMILES	Synergistic activity (FIC value) ATCC19606
CC(C)c1cc(-c2c[se]c(N=C(N)N)n2)cc(C(C)C)c1 [Compound I-18]	0.15
COc1ccc(Oc2ccccc2-c2csc(N=C(N)N)n2)c(C)c1 [Compound I-83]	0.63
NC(N)=Nc1nc(-c2cc(I)c(O)c(I)c2)co1 [Compound I-35]	0.13
Clc1sc(N=C2NCCCN2)nc1-c1ccccc1Oc1ccc(I)cc1I [Compound I-148]	0.31
NC(N)=Nc1nc(-c2ccc(F)cc2Oc2ccc(Cl)cc2Cl)c(Cl)s1 [Compound I-90]	0.03
CCc1[nH]c(N=C(N)N)nc1-c1cccc2c(C)cccc12 [Compound I-60]	0.12
Clc1ccc(Oc2ccccc2-c2c[nH]c(N=C3NCCCN3)n2)c(Cl)c1 [Compound I-146]	0.31
CS(=O)(=O)c1ccc(Oc2ccccc2Cl)cc1-c1nc(N=C2NCCCN2)sc1Cl [Compound I-155]	0.03
NC(N)=Nc1nc(-c2cccc(Oc3ccccc3I)c2)cs1 [Compound I-96]	0.03

test system: ATCC13883 strain (Klebsiella pneumoniae); assay: as above; type: cell-based; design: key: FIC≤0.5 synergy; 0.5–1 additive; 1–2 indifferent; ≥2 antagonism; details: combined with polymyxin E
In short: as §2

SMILES	Synergistic activity (FIC value) ATCC13883
CC(C)c1cc(-c2c[se]c(N=C(N)N)n2)cc(C(C)C)c1 [Compound I-18]	0.33
COc1ccc(Oc2ccccc2-c2csc(N=C(N)N)n2)c(C)c1 [Compound I-83]	0.09
NC(N)=Nc1nc(-c2cc(I)c(O)c(I)c2)co1 [Compound I-35]	0.19
Clc1sc(N=C2NCCCN2)nc1-c1ccccc1Oc1ccc(I)cc1I [Compound I-148]	0.09
NC(N)=Nc1nc(-c2ccc(F)cc2Oc2ccc(Cl)cc2Cl)c(Cl)s1 [Compound I-90]	0.13
CCc1[nH]c(N=C(N)N)nc1-c1cccc2c(C)cccc12 [Compound I-60]	0.31
Clc1ccc(Oc2ccccc2-c2c[nH]c(N=C3NCCCN3)n2)c(Cl)c1 [Compound I-146]	0.09
CS(=O)(=O)c1ccc(Oc2ccccc2Cl)cc1-c1nc(N=C2NCCCN2)sc1Cl [Compound I-155]	0.16
NC(N)=Nc1nc(-c2cccc(Oc3ccccc3I)c2)cs1 [Compound I-96]	0.16

test system: ATCC9027 strain (Pseudomonas aeruginosa); assay: as above; type: cell-based; design: key: FIC≤0.5 synergy; 0.5–1 additive; 1–2 indifferent; ≥2 antagonism; details: combined with polymyxin E
In short: as §2

SMILES	Synergistic activity (FIC value) ATCC9027
CC(C)c1cc(-c2c[se]c(N=C(N)N)n2)cc(C(C)C)c1 [Compound I-18]	0.62
COc1ccc(Oc2ccccc2-c2csc(N=C(N)N)n2)c(C)c1 [Compound I-83]	0.04
NC(N)=Nc1nc(-c2cc(I)c(O)c(I)c2)co1 [Compound I-35]	1.25
Clc1sc(N=C2NCCCN2)nc1-c1ccccc1Oc1ccc(I)cc1I [Compound I-148]	0.06
NC(N)=Nc1nc(-c2ccc(F)cc2Oc2ccc(Cl)cc2Cl)c(Cl)s1 [Compound I-90]	0.18
CCc1[nH]c(N=C(N)N)nc1-c1cccc2c(C)cccc12 [Compound I-60]	0.31
Clc1ccc(Oc2ccccc2-c2c[nH]c(N=C3NCCCN3)n2)c(Cl)c1 [Compound I-146]	0.06
CS(=O)(=O)c1ccc(Oc2ccccc2Cl)cc1-c1nc(N=C2NCCCN2)sc1Cl [Compound I-155]	0.28
NC(N)=Nc1nc(-c2cccc(Oc3ccccc3I)c2)cs1 [Compound I-96]	0.28
